The values that follow come from ChEMBL document CHEMBL1201862, “PubChem BioAssay data set” (2004).

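In this assay, cells in 96-well plates receive the compound at five concentrations for 48 hours. Endpoints are linearly interpolated between the surrounding concentrations. At the GI50, growth is halved.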 Active and inactive are the calls of the source. Rule as the data show it: active = GI50 up to about 1.1 µM and inactive = higher. Where a SMILES comes first, the peptide text is derived from it. [ ]: non-standard residue; d: D form. The star is where a group is joined. NMeF = CN[CH](Cc1ccccc1)C(=O)O; NMeV = CN[CH](C(=O)O)C(C)C; Boc = CC(C)(C)OC(=O)*; OBn = c1ccc(CO*)cc1

Test systems include 786-0; CAKI-1; EKVX; HCC 2998; HCT-116; HT-29; M14; MOLT-4; Malme-3M; NCI-H522; OVCAR-3; SK-MEL-28; SN12C; SR; TK-10; U-251; COLO 205; SK-OV-3; Hs-578T.
What all share (experiment): NCI anticancer screen, dose series, 48 h

Consider `COc1ccc(NC(=O)CC2SC(Nc3ccc(Cl)cc3C)=NC2=O)c([N+](=O)[O-])c1` (stereo not drawn), for which the GI50 with 786-0, in the assay with CAKI-1, in the assay on EKVX, in the assay on HCC 2998, in the assay on HCT-116 and in the assay with HT-29 was > 100 µM (inactive) in each case. Besides, the GI50 in the assay on M14, in the assay on MOLT-4, in the assay with Malme-3M, with NCI-H522, with OVCAR-3 and in the assay on SK-MEL-28 was > 100 µM (inactive) each time. Moreover, the GI50 in the assay on SN12C, in the assay with SR, in the assay with TK-10 and in the assay with U-251 was > 100 µM (inactive) each time.

`COc1ccc([C@@H]2CC(=O)NCCCNCCCCNCCCN2)cc1`: the GI50 with 786-0, with CAKI-1, in the assay on COLO 205, with EKVX, with HCC 2998 and in the assay on HCT-116 was > 100 µM (inactive) throughout. Also, the GI50 with HT-29 is > 100 µM (inactive); in the assay on M14, > 100 µM (inactive); in the assay with MOLT-4, > 100 µM (inactive); in the assay on Malme-3M, > 100 µM (inactive); in the assay with NCI-H522, 30.8 µM (inactive); in the assay on SK-MEL-28 it was > 100 µM (inactive). In addition, the GI50 with SK-OV-3, in the assay on SN12C, in the assay with SR, with TK-10 and in the assay with U-251 was > 100 µM (inactive) in each case.

For the compound `NC1=NS(=O)(=O)Nc2nc(-c3ccc(Cl)cc3)[nH]c21`, the GI50 in the assay on 786-0, in the assay on CAKI-1, in the assay on COLO 205, in the assay on HCC 2998, in the assay with HCT-116 and in the assay on HT-29 was > 100 µM (inactive) in each case. In addition, the GI50 in the assay on M14, with MOLT-4, in the assay on Malme-3M, in the assay on NCI-H522, in the assay with OVCAR-3 and with SK-MEL-28 was > 100 µM (inactive) each time. Further, the GI50 with SK-OV-3, in the assay with SN12C, in the assay with SR, in the assay on TK-10 and in the assay on U-251 was > 100 µM (inactive) throughout.

For the compound `Cc1cn(C2OC(C)(CO)C(O)C2O)c(=O)[nH]c1=O` (stereo not drawn), the GI50 with 786-0, in the assay on CAKI-1, in the assay with COLO 205, with HCC 2998, in the assay on HCT-116 and with HT-29 was > 100 µM (inactive) each time. In addition, the GI50 with M14, with MOLT-4, in the assay with Malme-3M, with NCI-H522, in the assay with OVCAR-3 and with SK-MEL-28 was > 100 µM (inactive) throughout. Moreover, the GI50 with SK-OV-3, with SN12C, in the assay on SR, in the assay with TK-10 and with U-251 was > 100 µM (inactive) throughout.

Turning to `C=C(NC(=O)C(=C)NC(=O)c1csc(C2=NC3c4csc(n4)C4NC(=O)c5csc(n5)C(C(C)(O)C(C)O)NC(=O)C5CSC(=N5)/C(=C/C)NC(=O)C(C(C)O)NC(=O)c5csc(n5)C3(CC2)NC(=O)C(C)NC(=O)C(=C)NC(=O)C(C)NC(=O)C(C(C)CC)NC2C=Cc3c(C(C)O)cc(nc3C2O)C(=O)OC4C)n1)C(N)=O` (stereo not drawn), the GI50 was 1.54 µM (inactive) in the assay on 786-0; 2.92 µM (inactive) with CAKI-1; 18.2 µM (inactive) in the assay with EKVX; 6.67 µM (inactive) in the assay on HCC 2998; 0.51 µM (active) in the assay with HCT-116; 1.43 µM (inactive) with HT-29. Moreover, the GI50 is 1.67 µM (inactive) with M14; 1.63 µM (inactive) in the assay on Malme-3M; 0.287 µM (active) in the assay with NCI-H522; 1.75 µM (inactive) with OVCAR-3; 1.27 µM (inactive) in the assay on SK-MEL-28; 15 µM (inactive) in the assay with SK-OV-3. Further, the GI50 with SN12C was 1.94 µM (inactive); with SR, 0.302 µM (active); in the assay with TK-10, 2.75 µM (inactive); with U-251, 1.57 µM (inactive).

Take `COc1ccc2nc3ccc(OC)cc3c(SCc3ccc([N+](=O)[O-])cc3)c2c1`: the GI50 was 24.7 µM (inactive) with 786-0; 44.1 µM (inactive) with CAKI-1; > 100 µM (inactive) with COLO 205; > 100 µM (inactive) in the assay on EKVX; > 100 µM (inactive) in the assay on HCC 2998; 70.3 µM (inactive) in the assay with HCT-116. The GI50 was 24.1 µM (inactive) in the assay with HT-29; > 100 µM (inactive) in the assay with M14; > 100 µM (inactive) in the assay with MOLT-4; > 100 µM (inactive) with Malme-3M; 17.3 µM (inactive) in the assay on NCI-H522; 63 µM (inactive) in the assay on OVCAR-3. Also, the GI50 was > 100 µM (inactive) with SK-MEL-28; > 100 µM (inactive) in the assay with SK-OV-3; > 100 µM (inactive) in the assay on SN12C; > 100 µM (inactive) in the assay with SR; 34 µM (inactive) with TK-10; > 10 µM (inactive) in the assay on U-251.

As to `CCOC(=O)C1C(C(C)C)C2(C#N)C(=N)OC1(C)C2(C#N)C#N` (stereo not drawn), the GI50 in the assay with 786-0 is 54 µM (inactive); in the assay with CAKI-1 it was 2.72 µM (inactive); in the assay with COLO 205, 7.46 µM (inactive); in the assay on EKVX it was 78.3 µM (inactive); in the assay with HCC 2998, > 100 µM (inactive); with HCT-116, 56 µM (inactive). Besides, the GI50 is 82 µM (inactive) with HT-29; > 100 µM (inactive) in the assay on Hs-578T; > 100 µM (inactive) with M14; 40.8 µM (inactive) with Malme-3M; 26 µM (inactive) in the assay with NCI-H522; > 100 µM (inactive) in the assay with SK-MEL-28. Moreover, the GI50 is > 100 µM (inactive) in the assay with SK-OV-3, 65.8 µM (inactive) in the assay on SN12C, > 100 µM (inactive) in the assay with TK-10 and 82.4 µM (inactive) in the assay on U-251.

With `Cc1c(C)c([N+](=O)[O-])c2c(c1N)C(=O)c1ccccc1C2=O`, the GI50 in the assay on 786-0 was 65.5 µM (inactive); in the assay with COLO 205, 58.9 µM (inactive); in the assay on EKVX, > 100 µM (inactive); in the assay with HCC 2998, > 100 µM (inactive); in the assay with HCT-116 it was > 100 µM (inactive); in the assay on HT-29, 55.2 µM (inactive). Further, the GI50 in the assay with M14 was > 100 µM (inactive); in the assay with MOLT-4, > 100 µM (inactive); with Malme-3M, > 100 µM (inactive); in the assay with NCI-H522, 61.7 µM (inactive); in the assay with OVCAR-3, 24.8 µM (inactive); in the assay with SK-MEL-28, > 100 µM (inactive). Also, the GI50 in the assay with SK-OV-3, in the assay on SN12C, with SR, with TK-10 and with U-251 was > 100 µM (inactive) throughout.

Turning to `C[C@H]1CC(=O)C2=CCCC3(SCCCS3)[C@@H]2[C@H]1CO`, the GI50 was > 100 µM (inactive) with 786-0; > 100 µM (inactive) in the assay with CAKI-1; > 100 µM (inactive) in the assay with COLO 205; > 100 µM (inactive) in the assay on EKVX; > 100 µM (inactive) with HCC 2998; 89.5 µM (inactive) with HCT-116. Moreover, the GI50 is > 100 µM (inactive) in the assay on HT-29; > 100 µM (inactive) with M14; 44.9 µM (inactive) in the assay with MOLT-4; > 100 µM (inactive) with Malme-3M; > 100 µM (inactive) with NCI-H522; > 100 µM (inactive) in the assay on OVCAR-3. The GI50 was > 100 µM (inactive) with SK-MEL-28; > 100 µM (inactive) with SK-OV-3; > 100 µM (inactive) in the assay with SN12C; 54.3 µM (inactive) in the assay on SR; > 100 µM (inactive) in the assay on TK-10; 91.4 µM (inactive) in the assay with U-251.

Take `Clc1cc(Cl)c2n[se]nc2c1`: the GI50 in the assay with 786-0, in the assay on CAKI-1, in the assay on EKVX, in the assay with HCC 2998, in the assay with HCT-116 and in the assay with HT-29 was > 100 µM (inactive) throughout. Besides, the GI50 in the assay on M14, in the assay on MOLT-4, in the assay with Malme-3M, in the assay with NCI-H522, in the assay with SK-MEL-28 and with SK-OV-3 was > 100 µM (inactive) in each case. For the same compound, the GI50 is > 100 µM (inactive) in the assay with SN12C, > 100 µM (inactive) in the assay on SR, 38.3 µM (inactive) with TK-10 and > 100 µM (inactive) in the assay with U-251.

Regarding `CC(C)C(NC(=O)OC(C)(C)C)C(=O)N(C)C(Cc1ccccc1)C(=O)N(C)C(C(=O)N(C)C(C(=O)OCc1ccccc1)C(C)C)C(C)C` (stereo not drawn) (Boc-V[NMeF][NMeV][NMeV]-OBn; configuration not given here), the GI50 with 786-0 is > 100 µM (inactive); in the assay on COLO 205, > 100 µM (inactive); in the assay on EKVX, 89.1 µM (inactive); in the assay with HCC 2998, 44.2 µM (inactive); in the assay on HCT-116 it was 66.5 µM (inactive); in the assay on HT-29, 20.2 µM (inactive). For the same compound, the GI50 is 62.8 µM (inactive) in the assay with M14; 4.81 µM (inactive) in the assay with MOLT-4; 24.8 µM (inactive) in the assay with Malme-3M; 16.7 µM (inactive) with NCI-H522; > 100 µM (inactive) with OVCAR-3; > 100 µM (inactive) with SN12C. The GI50 is 20.8 µM (inactive) in the assay on SR, > 100 µM (inactive) in the assay with TK-10 and > 100 µM (inactive) with U-251.
